IC50 data for twelve molecules are collected here from patent US11046649B2, “Compounds useful as inhibitors of indoleamine 2,3-dioxygenase and/or tryptophan dioxygenase” (Board of Regents, The University of Texas System, priority 2018, dated 2021).

This assay has as its target T1, IDO1 (Homo sapiens, UniProt P14902).
T1 construct: endogenous in cells; host or cells: HeLa cells (ATCC), IDO1 induced with 10 ng/mL IFNgamma
Kind of assay: IDO1 cell-based assay. Conditions: HeLa cells, 10 ng/mL IFNgamma, 24 hours with test compound; N-Formyl Kynurenine and L-tryptophan quantified by RFMS.

T1 sequence (P14902 whole entry): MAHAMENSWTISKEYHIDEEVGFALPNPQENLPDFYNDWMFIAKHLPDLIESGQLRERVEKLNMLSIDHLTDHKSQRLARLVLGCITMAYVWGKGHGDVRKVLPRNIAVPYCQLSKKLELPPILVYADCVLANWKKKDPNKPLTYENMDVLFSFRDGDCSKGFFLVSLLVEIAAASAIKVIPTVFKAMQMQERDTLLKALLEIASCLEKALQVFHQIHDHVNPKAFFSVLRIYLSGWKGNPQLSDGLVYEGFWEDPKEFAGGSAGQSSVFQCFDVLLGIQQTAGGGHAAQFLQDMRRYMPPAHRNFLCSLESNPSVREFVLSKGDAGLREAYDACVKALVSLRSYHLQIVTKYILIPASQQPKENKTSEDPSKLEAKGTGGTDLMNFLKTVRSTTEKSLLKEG

By IC50 is commonly meant the midpoint of a concentration-inhibition curve. Low values mean greater potency in that assay, high ones weaker potency in that assay. Molecule `N#Cc1ccc(NC(=O)C(C2CC2)[C@H]2[C@@H]3C[C@@H](Oc4ccnc5ccc(F)cc45)C[C@@H]32)nc1` (stereo partly drawn) [Example 121, N-(5-cyanopyridin-2-yl)-2-cyclopropyl-2-((1R,3s,5S,6r)-3-((6-fluoroquinolin-4-yl)-oxy)bicyclo[3.1.0]hexan-6-yl)acetamide] yielded an IC50 of 1.67 nM. Under `N#Cc1ccc(NC(=O)C(C2CC2)[C@H]2[C@@H]3C[C@@H](Oc4ccnc5ccc(F)cc45)C[C@@H]32)nn1` (stereo partly drawn) [Example 124, N-(6-cyanopyridazin-3-yl)-2-cyclopropyl-2-((1R,3s,5S,6r)-3-((6-fluoroquinolin-4-yl)oxy)-bicyclo[3.1.0]hexan-6-yl)acetamide] stands 8.41 nM; under `O=C(O)C(C1CC1)[C@H]1[C@@H]2C[C@@H](Oc3ccnc4ccc(F)cc34)C[C@@H]21` (stereo partly drawn) [Example 127, 2-cyclopropyl-2-((1R,3s,5S,6r)-3-((6-fluoroquinolin-4-yl)oxy)-bicyclo[3.1.0]hexan-6-yl)acetic acid], 6310 nM. In the case of `CC(C(=O)NC12CC(NC(=O)CO)(C1)C2)[C@H]1[C@@H]2C[C@@H](Oc3ccnc4ccc(F)cc34)C[C@@H]21` (stereo partly drawn) [Example 129, 2-((1R,3s,5S,6r)-3-((6-fluoroquinolin-4-yl)oxy)-bicyclo[3.1.0]hexan-6-yl)-N-(3-(2-hydroxy-acetamido)bicyclo-[1.1.1]pentan-1-yl)-propanamide], the IC50 is 597 nM. With `CC(C(=O)NC12CC(NC(=O)CC#N)(C1)C2)[C@H]1[C@@H]2C[C@@H](Oc3ccnc4ccc(F)cc34)C[C@@H]21` (stereo partly drawn) [Example 130], it took 636 nM to reach half-maximal inhibition (IC50). In turn, `COCC(=O)NC12CC(NC(=O)C(C)[C@H]3[C@@H]4C[C@@H](Oc5ccnc6ccc(F)cc56)C[C@@H]43)(C1)C2` (stereo partly drawn) [Example 132, 2-((1R,3s,5S,6r)-3-((6-fluoroquinolin-4-yl)oxy)-bicyclo[3.1.0]hexan-6-yl)-N-(3-(2-methoxyacetamido)-bicyclo[1.1.1]pentan-1-yl)-propanamide] showed an IC50 of 511 nM. This IC50 and that of the molecule before are within 1.5-fold of each other. Under `CC(=O)NC12CC(NC(=O)C(C)[C@H]3[C@@H]4C[C@@H](Oc5ccnc6ccc(F)cc56)C[C@@H]43)(C1)C2` (stereo partly drawn) [Example 133, N-(3-acetamidobicyclo-[1.1.1]pentan-1-yl)-2-((1R,3s,5S,6r)-3-((6-fluoro-quinolin-4-yl)oxy)bicyclo-[3.1.0]hexan-6-yl)-propanamide] stands 420 nM; under `CC(c1nc2cc(C(F)(F)F)ccc2[nH]1)[C@H]1[C@@H]2C[C@@H](Oc3ccnc4ccc(F)cc34)C[C@@H]21` (stereo partly drawn) [Example 137, 6-fluoro-4-(((1R,3s,5S,6r)-6-(1-(5-(trifluoromethyl)-1H-benzo[d]imidazol-2-yl)-ethyl)bicyclo[3.1.0]hexan-3-yl)oxy)quinoline], 1.2 nM; under `CC(C(=O)Nc1cnn(-c2ccccc2)c1)[C@H]1[C@@H]2C[C@@H](Oc3ccnc4ccc(F)cc34)C[C@@H]21` (stereo partly drawn) [Example 143, 2-((1R,3s,5S,6r)-3-((6-fluoroquinolin-4-yl)-oxy)bicyclo[3.1.0]hexan-6-yl)-N-(1-phenyl-1H-pyrazol-4-yl)propanamide], 2.77 nM.

Molecule `CCC(C(=O)Nc1ccc(C#N)nn1)[C@H]1[C@@H]2C[C@@H](Oc3ccnc4ccc(F)cc34)C[C@@H]21` (stereo partly drawn) [Example 149, N-(6-cyanopyridazin-3-yl)-2-((1R,3s,5S,6r)-3-((6-fluoroquinolin-4-yl)oxy)-bicyclo[3.1.0]hexan-6-yl)butanamide] yielded an IC50 of 5.49 nM. Molecule “N-(5-(1H-1,2,4-triazol-1- yl)pyridin-2-yl)-2- ((1R,3s,5S,6r)-3-((6- fluoroquinolin-4-yl)- oxy)bicyclo[3.1.0]hexan-6- yl)propanamide [Example 96]” had an IC50 of 7.1 nM.

“N-(5-cyanopyridin-2-yl)-2- ((1R,3s,5S,6r)-3-((6- fluoroquinolin-4-yl)oxy)- bicyclo[3.1.0]hexan-6-yl)- propanamide [Example 58]”: inhibition was half-maximal at 2 nM (IC50). Against the preceding molecule, the IC50 is about 3.5-fold lower.
